From the NIST ThermoML archive (doi:10.1016/j.fluid.2004.11.024)
Several values for one entry are separate records, joined by “and”; a condition that tells them apart may be missing. Equal entries are not always repeated. Numbers after ± are expanded uncertainties.

Details: Liquid, Transpiration method

Cc1ccc(OCC(C)C)c(Br)c1 [2-bromo-1-isobutoxy-4-methylbenzene]
vapor or sublimation pressure (293.2 K): 0.0006 ± 3e-05 kPa
vapor or sublimation pressure (295.2 K): 0.00076 ± 4e-05 kPa
vapor or sublimation pressure (298.3 K): 0.00103 ± 5e-05 kPa
vapor or sublimation pressure (300.2 K): 0.0012 ± 6e-05 kPa
vapor or sublimation pressure (301.2 K): 0.00132 ± 7e-05 kPa
vapor or sublimation pressure (303.1 K): 0.0016 ± 8e-05 kPa
vapor or sublimation pressure (303.8 K): 0.00167 ± 9e-05 kPa
vapor or sublimation pressure (306.1 K): 0.00208 ± 0.00011 kPa
vapor or sublimation pressure (306.2 K): 0.00213 ± 0.00011 kPa
vapor or sublimation pressure (308.2 K): 0.00261 ± 0.00014 kPa
vapor or sublimation pressure (309.1 K): 0.00271 ± 0.00014 kPa
vapor or sublimation pressure (311.1 K): 0.00328 ± 0.00017 kPa
vapor or sublimation pressure (311.2 K): 0.00322 ± 0.00017 kPa
vapor or sublimation pressure (313.2 K): 0.00385 ± 0.00021 kPa
vapor or sublimation pressure (316.3 K): 0.00506 ± 0.00027 kPa
vapor or sublimation pressure (318.2 K): 0.00591 ± 0.00031 kPa
vapor or sublimation pressure (318.7 K): 0.00622 ± 0.00033 kPa
vapor or sublimation pressure (321.2 K): 0.00746 ± 0.00039 kPa
vapor or sublimation pressure (321.3 K): 0.00752 ± 0.0004 kPa and 0.00762 ± 0.0004 kPa
vapor or sublimation pressure (323.2 K): 0.00914 ± 0.00048 kPa and 0.00897 ± 0.00047 kPa and 0.00883 ± 0.00047 kPa
vapor or sublimation pressure (326.2 K): 0.01113 ± 0.00058 kPa
vapor or sublimation pressure (328.2 K): 0.01293 ± 0.00067 kPa

CC(C)COc1ccc(Br)cc1 [1-bromo-4-isobutoxybenzene]
vapor or sublimation pressure (293.2 K): 0.00151 ± 8e-05 kPa
vapor or sublimation pressure (298.3 K): 0.00242 ± 0.00013 kPa
vapor or sublimation pressure (301.2 K): 0.00304 ± 0.00016 kPa
vapor or sublimation pressure (303.2 K): 0.00351 ± 0.00019 kPa
vapor or sublimation pressure (306.2 K): 0.0048 ± 0.00025 kPa
vapor or sublimation pressure (308.4 K): 0.00538 ± 0.00028 kPa
vapor or sublimation pressure (311.3 K): 0.00687 ± 0.00036 kPa
vapor or sublimation pressure (313.3 K): 0.0081 ± 0.00043 kPa
vapor or sublimation pressure (316.2 K): 0.0101 ± 0.00053 kPa
vapor or sublimation pressure (318.3 K): 0.01175 ± 0.00062 kPa
vapor or sublimation pressure (321.3 K): 0.01498 ± 0.00078 kPa
vapor or sublimation pressure (323.2 K): 0.01699 ± 0.0009 kPa
vapor or sublimation pressure (326.3 K): 0.0224 ± 0.0012 kPa
vapor or sublimation pressure (328.2 K): 0.02634 ± 0.0014 kPa
vapor or sublimation pressure (331.2 K): 0.03352 ± 0.0018 kPa
vapor or sublimation pressure (333.2 K): 0.0391 ± 0.002 kPa

CC(C)COc1ccccc1Br [1-bromo-2-isobutoxybenzene]
vapor or sublimation pressure (293.3 K): 0.00213 ± 0.00011 kPa
vapor or sublimation pressure (295.3 K): 0.00252 ± 0.00013 kPa
vapor or sublimation pressure (298.1 K): 0.00325 ± 0.00017 kPa
vapor or sublimation pressure (301.2 K): 0.00423 ± 0.00022 kPa
vapor or sublimation pressure (303.3 K): 0.00511 ± 0.00027 kPa
vapor or sublimation pressure (306.2 K): 0.00634 ± 0.00033 kPa
vapor or sublimation pressure (308.3 K): 0.00753 ± 0.0004 kPa
vapor or sublimation pressure (311.2 K): 0.00954 ± 0.0005 kPa
vapor or sublimation pressure (313.3 K): 0.01119 ± 0.00059 kPa
vapor or sublimation pressure (316.3 K): 0.01398 ± 0.00073 kPa
vapor or sublimation pressure (318.2 K): 0.01628 ± 0.00085 kPa
vapor or sublimation pressure (321.3 K): 0.02031 ± 0.001 kPa
vapor or sublimation pressure (323.2 K): 0.02325 ± 0.0012 kPa

CC(C)COc1cccc(Br)c1 [1-bromo-3-isobutoxybenzene]
vapor or sublimation pressure (290.2 K): 0.00145 ± 8e-05 kPa
vapor or sublimation pressure (293.3 K): 0.00194 ± 0.0001 kPa
vapor or sublimation pressure (295.2 K): 0.00232 ± 0.00012 kPa
vapor or sublimation pressure (298.1 K): 0.00301 ± 0.00016 kPa
vapor or sublimation pressure (301.1 K): 0.00389 ± 0.0002 kPa
vapor or sublimation pressure (303.2 K): 0.00465 ± 0.00025 kPa
vapor or sublimation pressure (306.2 K): 0.00607 ± 0.00032 kPa
vapor or sublimation pressure (308.1 K): 0.00703 ± 0.00037 kPa
vapor or sublimation pressure (311.3 K): 0.00909 ± 0.00048 kPa
vapor or sublimation pressure (313.2 K): 0.0106 ± 0.00056 kPa
vapor or sublimation pressure (316.1 K): 0.01312 ± 0.00069 kPa
vapor or sublimation pressure (318.3 K): 0.01567 ± 0.00082 kPa
vapor or sublimation pressure (321.3 K): 0.01929 ± 0.001 kPa
vapor or sublimation pressure (323.2 K): 0.02231 ± 0.0012 kPa
